Test results: ChEMBL document CHEMBL4342454, “Unraveling Structures Containing Highly Conjugated Pyrrolo[4,3,2-de]quinoline Cores That Are Deficient in Diagnostic Proton NMR Signals” (J Nat Prod, 2020)
Active and inactive are the calls of the source.

Columns and labels:
[1] = test system: Yersinia pseudotuberculosis; test: Inhibition of Yersinia pseudotuberculosis Type 3 secretion system protein by SDS-PAGE analysis
Hep293TT = test: Cytotoxicity against human Hep293TT cells after 48 hrs by sulforhodamine B assay; format: functional, cell-based
Homo sapiens [2] = organism: Homo sapiens; test: Cytotoxicity against human D283 cells after 48 hrs by sulforhodamine B assay; format: functional, cell-based
Homo sapiens [3] = organism: Homo sapiens; test: Cytotoxicity against human SJCRH30 cells after 48 hrs by sulforhodamine B assay; format: functional, cell-based
A673 = test: Cytotoxicity against human A673 cells after 48 hrs by sulforhodamine B assay; format: functional, cell-based

Cc1nc2c(cc1-c1ccc(O)cc1)cc1c3c(c[nH]c32)CCN1C
inactive: inhibition [1] | Activity (Hep293TT) | Activity (Homo sapiens [2]) | Activity (Homo sapiens [3]) | Activity (A673)

CN1CCc2c[nH]c3c2c1cc1[o+]c2cc4c5c(c[nH]c5c2nc13)CCN4C
inactive: inhibition [1] | Activity (Hep293TT) | Activity (Homo sapiens [2]) | Activity (Homo sapiens [3]) | Activity (A673)
